Data on two compounds can be found in US20220304955A1 (Nacuity Pharmaceuticals, Inc., priority 2021, published 2022).

For data set [1], the target named is T1, glutamate cysteine ligase (GCL, EC 6.3.2.2) (Homo sapiens, UniProt P48506).
T1 sequence (P48506 1-637): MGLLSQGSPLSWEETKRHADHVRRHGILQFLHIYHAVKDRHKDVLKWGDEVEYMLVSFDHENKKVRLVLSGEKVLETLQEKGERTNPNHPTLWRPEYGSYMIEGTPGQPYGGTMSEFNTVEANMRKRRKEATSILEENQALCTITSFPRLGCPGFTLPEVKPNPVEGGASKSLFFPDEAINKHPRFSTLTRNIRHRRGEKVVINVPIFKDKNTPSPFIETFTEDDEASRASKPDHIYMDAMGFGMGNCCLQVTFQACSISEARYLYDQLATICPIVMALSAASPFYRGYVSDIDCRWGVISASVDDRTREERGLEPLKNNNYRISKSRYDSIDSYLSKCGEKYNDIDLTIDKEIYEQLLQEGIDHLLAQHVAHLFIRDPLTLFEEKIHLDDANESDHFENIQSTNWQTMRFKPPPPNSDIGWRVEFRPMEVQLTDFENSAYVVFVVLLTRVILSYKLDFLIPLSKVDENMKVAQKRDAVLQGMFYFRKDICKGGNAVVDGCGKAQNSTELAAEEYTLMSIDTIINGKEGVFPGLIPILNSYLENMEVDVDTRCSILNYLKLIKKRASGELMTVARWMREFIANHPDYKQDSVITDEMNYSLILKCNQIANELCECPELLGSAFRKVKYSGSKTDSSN
T1 sequence (P48507 1-274 partner): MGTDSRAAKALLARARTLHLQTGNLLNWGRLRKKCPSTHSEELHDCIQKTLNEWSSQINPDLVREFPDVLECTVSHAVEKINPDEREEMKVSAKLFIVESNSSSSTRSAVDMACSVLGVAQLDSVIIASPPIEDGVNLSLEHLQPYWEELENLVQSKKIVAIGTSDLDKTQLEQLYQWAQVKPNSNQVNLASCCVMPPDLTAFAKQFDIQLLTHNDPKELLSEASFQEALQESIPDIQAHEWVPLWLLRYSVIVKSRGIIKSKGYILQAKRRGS
Particulars: read-out: apparent Km; cited from earlier work.

The next data set deals with N27 cells. The experiment in a line: Cellular ferroptosis assay, cell viability by MTT. It counts as cell-based, rat. The procedure:
Materials and Methods. […] Cells were cultured at 37° C. with 5% CO2.

A further data set relates to Caenorhabditis elegans. The data set is described as follows: Caenorhabditis elegans Lifespan assay. It counts as in vivo. Particulars: for Median survival: from late L4 larval/young adult stage, 25 °C, strain TJ1060. The procedure:
NAC and NACA were dissolved in sterile water then added to the molten NGM at 55° C. Media containing equivalent vehicle alone (1% v/v DMSO) was used for comparison. 1% v/v DMSO was also added to NAC and NACA plates for consistency, as DMSO itself may affect lifespan. Standard overnight culture of the Escherichia coli strain OP50 was used as the food source. Lifespan data were collected at 25 (±1) ° C. using the temperature sensitive-sterile strain TJ1060 [spe-9(hc88); rrf-3(b26)] as a proxy for wildtype. A developmentally synchronous population was obtained by transferring egg-laying adults to fresh plates at 16° C. for 4 hours. The adults were removed and the plates with eggs then transferred to 25° C. to ensure sterility. After 48 hours at 25° C., when worms were at the late L4 larval/young adult stage, 25-35 nematodes were transferred to fresh plates containing either vehicle control (1% v/v DMSO), 1 mM NAC, 10 mM NAC, 1 mM NACA, 10 mM NACA, 1 mM diNACA, and 10 mM diNACA. All plates were coded to allowing blinding of the experimenter to the treatment regime during scoring. Nematodes were scored for survival at 1 to 2-day intervals and transferred to freshly prepared plates as needed (every 2-4 days). Worms lost not due to death were recorded as censored.
Results. Data was analyzed using GraphPad Prism 9, with survival curves compared using a long-rank (Mantel-Cox) test. P values are given for pair-wise comparisons to the vehicle control population.

The test system of another data set is C. elegans. The experiment in a line: Diethyl maleate (DEM) assay, survival of C. elegans. In kind it is in vivo, Caenorhabditis elegans. As to conditions: for % alive: then 10 mM DEM, scored at 24 hours. Here is the method: Materials and Methods. Effects of NAC, NACA and diNACA on diethyl maleate (DEM; Sigma-Aldrich)-induced toxicity in C. elegans was evaluated. (10 mM DEM alone conjugates GSH causing 50% depletion of GSH and 50% lethality after 24 hour exposure (Jenkins et al., 2020)). DEM was added to neat DMSO and added to molten NGM at 55° C. to a final concentration of 10 mM DEM and 0.5% v/v DMSO. Plates were seeded with E. coli strain OP50. Data were collected at 25 (±1) ° C. using the temperature sensitive-sterile strain TJ1060. A synchronous population was obtained by transferring egg-laying adults to fresh plates at 16° C. for 2-3 hours. The adults were removed and the plates with eggs then transferred to 25° C. to ensure sterility. After 48 hours at 25° C., when worms were at the late L4/young adult stage, 70 nematodes were transferred to fresh plates containing either vehicle control, 1 mM NAC, 10 mM NAC, 1 mM NACA, 10 mM NACA, 1 mM diNACA, 10 mM diNACA (all with 1.0% v/v DMSO). Worms were aged at 25° C. for a further 4 days and then transferred to DEM plates, 35-45 per plate, two plates per treatment. Survival, determined by touch-provoked movement, was scored at 24 hours after exposure to DEM.

Data set [2] can be described thus: Bioavailability after oral administration in rat (plasma levels). In kind it is in vivo. The procedure:
Materials and Methods. Bioavailability of diNACA after oral administration in rat was evaluated. NACA and diNACA, separately, were suspended in phosphate-buffered saline (pH 7) and dosed to rats by oral gavage. Blood specimens were collected and processed to produce plasma. Plasma specimens were analyzed for NAC, NACA and diNACA concentration.
The thiol moiety of NAC, NACA, or diNACA and their respective internal standards oxidizes quickly in plasma through formation of disulfides. In order to determine total NAC and total NACA levels in plasma, tris(2-carboxyethyl)phosphine (TCEP) is added during the extraction to reduce disulfide bonds. Ammonium bicarbonate is added to control sample pH near neutral, as TCEP will otherwise acidify the aliquoted samples and hinder derivatization. The free analyte is then derivatized to a stable thioether using 2-chloro-1-methylpyridinium iodide (CMPI). […]
Thioether derivatives of NAC and NACA for LCMS analyses. Samples were analyzed on a Waters Acquity liquid chromatograph interfaced with a Thermo Scientific TSQ Vantage triple quadrupole mass spectrometer with ESI ionization. […]

A short description of data set [3]: Solubility of diNACA in solvents. It counts as physicochemical.

As to `N[C@@H](CS)C(=O)O` [cysteine, L-cysteine], the Km in data set [1] was 100 to 300 µM.

With `CC(=O)N[C@@H](CSSC[C@H](NC(C)=O)C(N)=O)C(N)=O` [diNACA, (2R,2R′)-3,3′-disulfanediyl bis(2-acetamidopropanamide)], in the data set with N27 cells (50 or 500 μM in PBS for 24 hours, then erastin, RSL3 or glutamate for additional 24 hours), the “anti-ferroptotic activity on pretreatment prior to ferroptosis induction” value is reported as “did not differentiate anti-ferroptotic activity”. Further, in the data set on N27 cells (diNACA solubilized in media (2-75 mM), RSL3 100 nM, 24 hours), the “concentration at which a small effect on RSL3 toxicity is seen” value is 75 mM. Moreover, in the data set on N27 cells (diNACA solubilized in media (2-75 mM), erastin 2 μM or glutamate 100 mM, 24 hours), the “concentration partially preventing erastin and glutamate-induced toxicity” value is ≥ 5 mM. In addition, in the data set with N27 cells (erastin 2 μM, RSL3 100 nM or glutamate 100 mM, 24 hours, added at same time, liproxstatin-1 4-250 nM, NAC, NACA (in water), diNACA (in NMP) 8-500 μM), the “prevention of ferroptosis induced by erastin, RSL3 and glutamate (cell viability)” value is “did not prevent ferroptosis”. Moreover, the “anti-ferroptotic activity on post-treatment” value in the data set with N27 cells (erastin, RSL3 or glutamate for 5 hours, then 50 or 500 μM in PBS for additional 19 hours) is given as “did not differentiate anti-ferroptotic activity”. In addition, the increase in lifespan result in the data set on Caenorhabditis elegans (1 mM) and with Caenorhabditis elegans (10 mM) was “marked increase in lifespan” in each case. The “Median survival” value in the data set with Caenorhabditis elegans (1 mM in NGM) and in the data set on Caenorhabditis elegans (10 mM in NGM) was 18 days each time. Further, in the data set on Caenorhabditis elegans (FIG. 8), the “lifespan of C. elegans relative to control” value is given as “more than doubled the lifespan”. In the data set on Caenorhabditis elegans (versus control), the “percentage lifespan extension, increase in median lifespan” value stood at 125%. In addition, the “rescue from DEM-induced toxicity” value with C. elegans (1 mM) and in the data set with C. elegans (10 mM) was “rescue” in each case. Further, the “% alive” value is 95% in the data set with C. elegans (1 mM pre-treatment 4 days) and 98% with C. elegans (10 mM pre-treatment 4 days). Moreover, the “metabolism, plasma levels of NACA and NAC” value in data set [2] (200 mg/kg oral diNACA compared with oral NACA) is “metabolized to NACA and NAC to yield greater levels for longer periods of time compared to oral dosing with NACA”. For the same compound, the “absorption after oral administration” value in data set [2] (200 mg/kg oral gavage, suspension in PBS pH 7) is reported as “well absorbed”. Also, in data set [3] (Nacuity data on file), the “solubility in water or DMSO” value is listed as “not soluble in water or DMSO”. The “solubility in neat DMSO” value in data set [3] (suspension, dissolved upon addition to NGM) was “not fully soluble in DMSO”.
